Test results reported in patent US9624161B2 (priority 2009, dated 2017).

Columns and labels:
[1] = test system: men with advanced prostate cancer; assay: Study 2: Phase 2 trial in men with advanced prostate cancer, Compound IV 1000 or 2000 mg daily versus leuprolide depot; type: in vivo, human; conditions: for Castrated (%) at Day 28 / Castrated (%) on both Day 28 and Day 60 / No. Castrated at Day 28 / No. Castrated on both Day 28 and Day 60: ITT; for Subjects that achieved castration (total T<50 ng/dL) by Day 60: subjects that reached Day 60; for % Reduction on PSA at Day 28 / Mean Free T at Day 28 / Mean Total T at Day 28: subjects castrated on both day 28 and day 60; for Castration (%): patients receiving >14 days; for Median free testosterone: Day 120; for Median increase in SHBG: Day 90
Experimental: This was a prospective, randomized 1:1:1, Phase 2 open-label, multicenter, trial comprised of men with advanced prostate cancer (n=159) initiating ADT with either oral daily doses of 1000 mg Compound IV, oral daily doses of 2000 mg Compound IV, or leuprolide depot (Lupron Depot® 4 month). It was conducted according to the Declaration of Helsinki, approved by appropriate research ethics committees, and each patient provided signed informed consent prior to registration and randomization. Patient demographlics are outlined in Table 24.
The trial required each subject to remain on the study for at least 60 days. […] Subjects that achieved castration by day 60 continued for up to 360 days to assess the safety of Compound IV over this dosing duration and to assess the maintenance of total testosterone levels ≦50 ng/dL.
The major inclusion criteria for the trial were: Males between 45-80 years of age; ECOG ≦2; screening serum total testosterone ≧150 ng/dL; no prior ADT (medical or surgical) unless the subject had been treated with LHRH agent for ≦6 months duration and that treatment was ≧1 years prior to screening.
The primary endpoint of the clinical trial was the proportion of patients that achieve ≦50 ng/dL total testosterone by Day 60. Secondary efficacy endpoints evaluated included serum concentrations of free testosterone, PSA, SHBG, safety and tolerability of Compound IV, incidence and frequency of hot flashes, serum bone turnover markers [bone specific alkaline phosphatase (BSAP) and c-terminal telopeptide (CTX)] and IGF-1 levels, an indicator of insulin resistance.
All serum hormone and PSA measurements were performed by a central laboratory utilizing standard techniques. Serum total testosterone concentrations were determined using a validated liquid chromatography-tandem mass spectrometry (LC/MS-MS) method. This is the assay platform that is current utilized for total testosterone by most major laboratories and provides values which are more accurate at the lower levels of testosterone found in women, children, hypogonadal men, and men on ADT. The percent free testosterone was determined by equilibrium dialysis. Free testosterone concentrations were calculated as the product of (total testosterone by LC/MS/MS) and (free fraction by equilibrium dialysis). This combination of approaches is considered to be the gold standard with which to measure free testosterone with excellent accuracy and validity (sensitivity and specificity).
Hot flash assessments were performed utilising a standard instrument to measure the frequency and severity of hot flashes, and data were compiled at baseline, Day 28 and Day 90. The men reported as experiencing hot flashes were those indicating any in the period between the respective time point and the prior patient visit. CTX (pg/ml) assayed by an electrochemiluminescent immunoassay and BSAP (U/L) assayed by immunoenzymatic methodology were measured as indicators of bone turnover. Serum IGF-1 levels were measured by liquid chromatography/mass spectrometry (LC/MS) at the same time each day (within a +/−60 minute window).
Simple descriptive statistics and graphics were used to present the characteristics of the study population. One way Analysis of Variance (PROC GLM with CONTRAST statement) methods were used to compare total testosterone percent change from baseline to Day 28, Day 60 and Day 90. Kaplan Meier survival analysis was used to estimate the proportion of subjects that reached castrate levels by Day 60 in each treatment arm based upon time to total testosterone of ≦50 ng/dL. Fisher Exact tests were used to compare rate of hot flashes at Day 28 and Day 90 among the two Compound IV and the leuprolide arms. One way ANOVA methods were also used to compare CTX and BSAP changes from baseline to Day 120 between treatment groups. The intent-to-treat (ITT) population consisted of all randomized patients who received at least one dose of Compound IV or leuprolide depot. […]

[2] = test system: treatment naïve male Cynomolgus monkeys; assay: Suppression and recovery of androgen levels in intact male monkeys, 30 mg/kg oral for 7 days; type: in vivo, Cynomolgus monkey; design: Circulating androgen level (mean±SEM) / Circulating androgen level after recovery: unit not given here
Experimental: The effect of Compound IV on suppression and recovery of testosterone levels in intact male monkeys was evaluated in conjunction with an oral pharmacokinetic study. Three treatment naïve male Cynomolgus monkeys (2 to 3 years old) were administered Compound IV at 30 mg/kg daily by oral gavage for 7 consecutive days. Blood samples were collected and divided into serum and plasma for testosterone and Compound IV quantitative measurements, respectively.

[3] = test system: isolated canine Purkinje fibers; assay: Action potential duration in isolated canine Purkinje fibers in vitro; conditions: 10 and 100 μM
Experimental: Compound IV exerts little or no in vitro inhibitory effects (IC50≧300 μM) on the hERG channel.

[4] = test system: healthy older male volunteers; assay: Study 4: proof of concept study in healthy older male volunteers (1000, 1500, 2000 mg tablets, 28 days); type: in vivo, human; conditions: each dose arm (1000, 1500, 2000 mg)
[5] = test system: human peripheral blood lymphocytes; assay: Chromosomal aberrations in human peripheral blood lymphocytes in vitro; type: cell-based; conditions: concentrations up to 200 μM
Source text: Compound IV was well-tolerated by rats and dogs after single and repeated oral administration (up to 28 days).

intact male rats = assay: Bone preservation despite reduction of LH and testosterone in rats (oral); type: in vivo, rat
[6] = 1000 mg Compound IV, baseline to Day 120
[7] = preliminary analysis, Compound IV 2000 mg daily (41 assessed) or Lupron Depot (49 assessed)

O=C(c1ccc(O)c(F)c1)N(c1ccc(O)cc1)c1ccc(F)cc1 [Compound IV, 3-fluoro-N-(4-fluorophenyl)-4-hydroxy-N-(4-hydroxyphenyl)benzamide]
Median free testosterone in castrate men (total testosterone ≦50 ng/dL) ([1]; 1000 mg): 0.4 pg/mL | Castrated (%) at Day 28 ([1]; 1000 mg Compound IV (n = 53)): 49% | Castrated (%) on both Day 28 and Day 60 ([1]; 1000 mg Compound IV (n = 53)): 30% | No. Castrated at Day 28 ([1]; 1000 mg Compound IV (n = 53)): 26 | No. Castrated on both Day 28 and Day 60 ([1]; 1000 mg Compound IV (n = 53)): 16 | Subjects that achieved castration (total T<50 ng/dL) by Day 60 ([1]; 1000 mg Compound IV arm): 43.4% | Bone specific alkaline phosphatase (BSAP) percentage change [1, 6]: −26.3% | C-terminal telopeptides (CTX) percentage change [1, 6]: −55.3% | % Reduction on PSA at Day 28 ([1]; 1000 mg Compound IV): 84% | Mean Free T at Day 28 ([1]; 1000 mg Compound IV): 1.0 ± 0.8 pg/mL | Mean Total T at Day 28 ([1]; 1000 mg Compound IV): 25 ± 15 ng/dL | Castration (%) ([1]; 1000 mg QD, D28): 50% | Castration (%) ([1]; 1000 mg QD, D60): 59.4% | Castration (%) ([1]; 1000 mg QD, Ever): 61.5% | Median free testosterone ([1]; 1000 mg arm): 0.4 pg/mL | Subjects with a venous thromboembolism event (VTE) ([1]; 1000 mg dose arm): 9 subjects | Median increase in SHBG ([1]; 1000 mg): 495% | Median free testosterone in castrate men (total testosterone ≦50 ng/dL) ([1]; 2000 mg): 0.3 pg/mL | Castrated (%) at Day 28 ([1]; 2000 mg Compound IV (n = 55)): 56% | Castrated (%) on both Day 28 and Day 60 ([1]; 2000 mg Compound IV (n = 55)): 51% | No. Castrated at Day 28 ([1]; 2000 mg Compound IV (n = 55)): 31 | No. Castrated on both Day 28 and Day 60 ([1]; 2000 mg Compound IV (n = 55)): 28 | Subjects that achieved castration (total T<50 ng/dL) by Day 60 ([1]; 2000 mg Compound IV arm): 63.6% | Bone specific alkaline phosphatase (BSAP) percentage change ([1]; 2000 mg Compound IV, baseline to Day 120): −22.6% | % Reduction on PSA at Day 28 ([1]; 2000 mg Compound IV): 73% | Mean Free T at Day 28 ([1]; 2000 mg Compound IV): 0.7 ± 0.7 pg/mL | Mean Total T at Day 28 ([1]; 2000 mg Compound IV): 19 ± 9 ng/dL | Castration (%) ([1]; 2000 mg QD, D28): 31% | Castration (%) ([1]; 2000 mg QD, D60): 79.6% | Castration (%) ([1]; 2000 mg QD, Ever): 84.6% | Median free testosterone ([1]; 2000 mg arm): 0.3 pg/mL | Subjects with a venous thromboembolism event (VTE) ([1]; 2000 mg dose arm): 2 subjects | Median increase in SHBG ([1]; 2000 mg): 583% | Percentage of treated ADT naïve patients (castrate population) below the Free T cutoff of 0.5 pg/ml ([1]; 28 days on therapy): 28.3% | Percentage of treated ADT naïve patients (castrate population) below the Free T cutoff of 0.5 pg/ml ([1]; 45 days on therapy): 50.9% | Percentage of treated ADT naïve patients (castrate population) below the Free T cutoff of 0.5 pg/ml ([1]; 120 days on therapy): 58.1% | Rate of hot flashes relative to that in the leuprolide treated group ([1]; Day 90 visits): ≤ 25% | PSA level reached on average ([1]; Study 2 (FIG. 35)): < 0.2 µg/L | Change in serum IGF-1 level ([1]; Study 2, 1000 mg daily (n = 53), Day 1 to Day 28): -75.2 ± 25.6 ng/mL | Change in serum IGF-1 level ([1]; Study 2, 1000 mg daily (n = 53), Day 1 to Day 60): -73.7 ± 29.2 ng/mL | Change in serum IGF-1 level ([1]; Study 2, 1000 mg daily (n = 53), Day 1 to Day 90): -73.1 ± 25.1 ng/mL | Change in serum IGF-1 level ([1]; Study 2, 1000 mg daily (n = 53), Day 1 to Day 360): -35.2 ± 40.5 ng/mL | Change in serum IGF-1 level ([1]; Study 2, 2000 mg daily (n = 55), Day 1 to Day 28): -78.6 ± 38.3 ng/mL | Change in serum IGF-1 level ([1]; Study 2, 2000 mg daily (n = 55), Day 1 to Day 60): -77.7 ± 39.9 ng/mL | Change in serum IGF-1 level ([1]; Study 2, 2000 mg daily (n = 55), Day 1 to Day 90): -72.7 ± 24.9 ng/mL | Change in serum IGF-1 level ([1]; Study 2, 2000 mg daily (n = 55), Day 1 to Day 360): -33.4 ± 45.2 ng/mL | Mean SHBG for PSA responders (>50% reduction) ([1]; Study 2, all patients (FIG. 37)): 399%+85 | Reduction in reported hot flashes ([1]; day 90): greater than 4 fold | Increase in SHBG levels in men that responded ([1]; in vivo): 200-600% | Number of Subjects that Experienced a Hot Flash [1, 7]: 2 | Percent of Subjects that Experienced a Hot Flash [1, 7]: 5% | Induction of baseline SHBG ([1]; treatment naive patients (Study 2 and Study 5), after 28 days): 150-700% | Patients with at least a 50% reduction in % FreeT ([1]; treatment naïve patients (Studies 2 and 5), after 7 days of therapy): 81% | Patients with both at least a 50% reduction in % FreeT and a 50% reduction in PSA from baseline ([1]; treatment naïve patients (Studies 2 and 5), after a month): 80% | Molar ratio of SHBG to Total T relative to leuprolide acetate treated patients ([1]; treatment naïve patients, after 28 days): 3-7 fold | Drop in % FreeT ([1]; treatment naïve patients, day 28): 70% | Circulating androgen level after recovery ([2]; 30 mg/kg daily oral 7 days, then 18-day drug-free recovery): 1757.7±369.5 | Decrease of circulating androgen levels compared to baseline ([2]; 30 mg/kg daily oral, 7 days, three monkeys): up to 47% | Circulating androgen level (mean±SEM) ([2]; 30 mg/kg daily oral, Day 2): 997±104 | Circulating androgen level (mean±SEM) ([2]; 30 mg/kg daily oral, Day 6): 852±136 | APD50 [3]: dose-dependently decreased | APD90 [3]: dose-dependently decreased | SHBG increase over baseline [4]: 300-600% | Structural or numeric chromosomal aberrations [5]: did not induce | Bone loss associated with LH suppression (intact male rats): completely prevented the bone loss
